Data on one compound can be found in patent US9345704B2, “Materials and methods for suppressing and/or treating neurofibroma and related tumors” (Indiana University Research and Technology Corp., priority 2008, dated 2016).

SMILES strings stand for the structures. Counter-ions that a name gives are not always drawn.

The subject of the series is trigeminal plexiform neurofibroma. The series can be described thus: Compassionate use treatment with imatinib mesylate of a child presenting with a plexiform neurofibroma (MRI). The format is in vivo, human. An excerpt: Plexiform neurofibromas primarily present in infants and young children with NF1 are frequently characterized by rapid growth and invasion into adjacent organs often resulting in impairment of normal organ function. In addition, these tumors have a high likelihood of progressing to malignancy for which there is no cure.

As for `Cc1ccc(NC(=O)c2ccc(CN3CCN(C)CC3)cc2)cc1Nc1nccc(-c2cccnc2)n1` [imatinib mesylate, 4-(4-methylpiperazin-1-ylmethyl)-N-[4-methyl-3-(4-(pyridin-3-yl)pyrimidin-2-ylamino)phenyl]-benzamide], the side effects entry (NF1 patient, 350 mg/m2/dose, treatment for six months) was “no observed side effects”. In addition, the “tumor size (coronal MRI)” value (before vs 6 months following treatment) was “profound decrease in tumor size”. Moreover, under “before vs after 6 months of treatment”, the “upper airway (axial MRI)” value is given as “marked improvement with airway enlargement”. Further, the “recurrence of symptoms off treatment” value (off treatment for six months after six months of treatment) is reported as “without a recurrence of symptoms”.
